Laboratory results reported in patent US10898481B2 (priority 2018, dated 2021).

Columns and labels:
[1] = target: hADORA1/CHO (hA1 expressing) cells (Homo sapiens (Human), UniProt P30542); assay: cell-based; conditions: FLIPR inhibition, 10 μM adenosine, read-out: cAMP & FLIPR IC50 (nM) hA1
[2] = target: hA2a/CHO (Homo sapiens (Human), UniProt P29274); assay: cAMP inhibition assay in hA2a/CHO cells, 10 μM adenosine; type: cell-based; conditions: read-out: cAMP & FLIPR IC50 (nM) hA2a;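 also: compounds added to cells 30 min ahead of adenosine, then a further 30 min at 37 °C with adenosine before cAMP detection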
Chain of hA2a/CHO (P29274 whole entry): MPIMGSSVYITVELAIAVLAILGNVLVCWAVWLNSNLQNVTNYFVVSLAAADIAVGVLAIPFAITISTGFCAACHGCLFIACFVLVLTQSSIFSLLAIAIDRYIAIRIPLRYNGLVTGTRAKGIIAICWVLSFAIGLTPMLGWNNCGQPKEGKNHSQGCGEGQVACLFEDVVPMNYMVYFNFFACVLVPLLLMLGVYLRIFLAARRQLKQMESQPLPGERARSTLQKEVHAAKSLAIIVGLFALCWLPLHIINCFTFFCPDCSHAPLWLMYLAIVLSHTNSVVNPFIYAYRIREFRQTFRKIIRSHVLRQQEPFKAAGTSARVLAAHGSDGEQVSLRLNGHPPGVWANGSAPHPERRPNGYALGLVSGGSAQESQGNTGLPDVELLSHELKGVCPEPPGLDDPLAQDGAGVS
Experimental: (§1) hA2a/CHO, hA2b/CHO, hA3/CHO and mA2a/CHO (Genscript) were plated at 5×10^3 cells/well into 384-well polystyrene plates at the day of experiment. Compounds were pre-incubated with cells for 30 min at 37° C., 5% CO2. Then 10 μM adenosine was added to the cells and incubated for 30 min at 37° C., 5% CO2. Detection reagent (CISBIO) was added and the plates were incubated for 60 min at room temperature. The signal was captured by Envision.

[3] = target: hA2b/CHO (Homo sapiens (Human), UniProt P29275); assay: cAMP inhibition assay in hA2b/CHO cells, 10 μM adenosine; type: cell-based; conditions: read-out: cAMP & FLIPR IC50 (nM) hA2b;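 also: cells exposed to compound 30 min at 37 °C, then stimulated with adenosine a further 30 min, cAMP read after 60 min at room temperature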
Chain of hA2b/CHO (P29275 whole entry): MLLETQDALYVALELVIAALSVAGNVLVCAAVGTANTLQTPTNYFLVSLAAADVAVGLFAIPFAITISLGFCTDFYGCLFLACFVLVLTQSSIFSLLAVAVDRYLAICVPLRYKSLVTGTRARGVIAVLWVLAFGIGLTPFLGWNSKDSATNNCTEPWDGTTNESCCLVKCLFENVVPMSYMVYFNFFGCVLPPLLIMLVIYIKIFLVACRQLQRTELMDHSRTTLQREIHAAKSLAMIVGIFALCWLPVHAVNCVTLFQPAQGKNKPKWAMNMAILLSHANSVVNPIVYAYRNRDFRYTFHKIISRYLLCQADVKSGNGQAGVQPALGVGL
Experimental: as §1

[4] = target: mA2a/CHO (Mus musculus (Mouse), UniProt Q60613); assay: cAMP inhibition assay in mA2a/CHO cells, 10 μM adenosine; type: cell-based; conditions: read-out: cAMP & FLIPR IC50 (nM) mA2a;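 also: compounds preincubated 30 min at 37 °C before the adenosine challenge, then 30 min further stimulation, readout after 60 min detection reagent incubation at room temperature in 384-well plates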
Chain of mA2a/CHO (Q60613 whole entry): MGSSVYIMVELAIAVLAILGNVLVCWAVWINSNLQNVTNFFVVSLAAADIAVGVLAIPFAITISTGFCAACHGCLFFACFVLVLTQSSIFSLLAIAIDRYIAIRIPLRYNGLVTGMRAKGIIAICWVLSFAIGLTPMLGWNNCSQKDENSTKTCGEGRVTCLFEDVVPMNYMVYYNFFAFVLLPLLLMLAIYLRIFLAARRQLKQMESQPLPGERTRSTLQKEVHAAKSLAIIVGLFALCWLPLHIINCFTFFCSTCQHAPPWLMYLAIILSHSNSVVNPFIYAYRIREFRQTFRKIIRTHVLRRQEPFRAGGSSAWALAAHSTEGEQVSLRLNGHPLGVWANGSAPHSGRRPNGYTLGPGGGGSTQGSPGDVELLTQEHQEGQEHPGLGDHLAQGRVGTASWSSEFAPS
Experimental: as §1

Chain of hADORA1/CHO (hA1 expressing) cells (P30542 whole entry): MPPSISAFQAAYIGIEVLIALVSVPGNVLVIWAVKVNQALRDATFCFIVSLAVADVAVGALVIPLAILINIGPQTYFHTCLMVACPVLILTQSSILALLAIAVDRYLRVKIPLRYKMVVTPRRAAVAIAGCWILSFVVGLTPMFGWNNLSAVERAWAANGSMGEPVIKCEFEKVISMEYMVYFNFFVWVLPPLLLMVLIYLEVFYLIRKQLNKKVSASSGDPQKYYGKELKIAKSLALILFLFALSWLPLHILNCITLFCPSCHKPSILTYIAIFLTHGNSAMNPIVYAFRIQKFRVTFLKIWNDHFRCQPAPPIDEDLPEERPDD

SMILES | IC50 [1] | IC50 [2] | IC50 [3] | IC50 [4]
Cc1cnc2ccc(-c3nc(C(=O)NCC4(C)CCOC4)c(N)nc3-c3ncco3)cn12 (single isomer, unassigned; isomer 2) [Example 252, 3-amino-6-(3-methylimidazo[1,2-a]pyridin-6-yl)-N-((3-methyltetrahydrofuran-3-yl)methyl)-5-(oxazol-2-yl)pyrazine-2-carboxamide (isomer 2)] | 260 nM | 2.9 nM | 821 nM | 30 nM
CN1CCCC1CNC(=O)c1nc(-c2ccc3ncc(Cl)n3c2)c(-c2ncco2)nc1N (stereo in doubt) [Cmpd. 209, 3-amino-6-[3-chloroimidazo[1,2-a]pyridin-6-yl]-N-[[(2S)-1-methylpyrrolidin-2-yl]methyl]-5-(1,3-oxazol-2-yl)pyrazine-2-carboxamide] | > 10000 nM | 14 nM | 1260 nM | 134 nM
CNCCOc1cccnc1CNC(=O)c1nc(-c2ccc3ncc(C)n3c2)c(-c2ccc(F)cc2)nc1N [Cmpd. 199, 3-amino-5-(4-fluorophenyl)-N-([3-[2-(methylamino)ethoxy]pyridin-2-yl]methyl)-6-[3-methylimidazo[1,2-a]pyridin-6-yl]pyrazine-2-carboxamide] | 34 nM | 0.7 nM | 102 nM | 1.6 nM
Cc1cnc2ccc(-c3nc(C(=O)NC[C@H]4CCN(C(=O)C5CC5)C4)c(N)nc3-c3ncco3)cn12 [Cmpd. 219, 3-amino-N-[[(3R)-1-cyclopropanecarbonylpyrrolidin-3-yl]methyl]-6-[3-methylimidazo[1,2-a]pyridin-6-yl]-5-(1,3-oxazol-2-yl)pyrazine-2-carboxamide] | > 10000 nM | 4.9 nM | 2300 nM | 220 nM
Cc1cnc2ccc(-c3nc(C(=O)NC[C@@H]4CCN(C(=O)C5CC5)C4)c(N)nc3-c3ncco3)cn12 [Cmpd. 221, 3-amino-N-[[(3S)-1-cyclopropanecarbonylpyrrolidin-3-yl]methyl]-6-[3-methylimidazo[1,2-a]pyridin-6-yl]-5-(1,3-oxazol-2-yl)pyrazine-2-carboxamide] | 7540 nM | 1.6 nM | 1030 nM | 33 nM
Cc1cnc2ccc(-c3nc(C(=O)NCc4cccc(N[C@H]5C[C@@H](N(C)C)C5)n4)c(N)nc3-c3ncco3)cn12 [Cmpd. 224, Cis-3-amino-6-[3-methylimidazo[1,2-a]pyridin-6-yl]-5-(1,3-oxazol-2-yl)-N-[(6-[[3-(di-methylamino)cyclobutyl]amino]pyridin-2-yl)methyl]pyrazine-2-carboxamide] | 7880 nM | 3.2 nM | 245 nM | 27 nM
Cc1cnc2ccc(-c3nc(C(=O)NCc4cccc(N[C@H]5C[C@H](N(C)C)C5)n4)c(N)nc3-c3ncco3)cn12 [Cmpd. 227, Trans-3-amino-6-[3-methyl-imidazo[1,2-a]pyridin-6-yl]-5-(1,3-oxazol-2-yl)-N-[(6-[[3-(dimethylamino)cyclobutyl]amino]pyridin-2-yl)methyl]pyrazine-2-carboxamide] | 781 nM | 4.4 nM | 99 nM | 24 nM
Cc1cnc2ccc(-c3nc(C(=O)NC[C@H]4CCCO4)c(N)nc3-n3nccn3)cn12 [Cmpd. 229, 3-amino-6-[3-methylimidazo[1,2-a]pyridin-6-yl]-N-[[(2R)-oxolan-2-yl]methyl]-5-(2H-1,2,3-triazol-2-yl)pyrazine-2-carboxamide] | 1650 nM | 2.4 nM | 157 nM | 19 nM
Cc1ccc(-c2nc(N)c(C(=O)NCc3c(F)cccc3F)nc2-c2ccc(=O)n(C)c2)o1 [Example 2, 3-amino-N-[(2,6-difluorophenyl)methyl]-6-(1-methyl-6-oxo-1,6-dihydropyridin-3-yl)-5-(5-methylfuran-2-yl)pyrazine-2-carboxamide] | 26 nM | 0.9 nM | 92 nM | 21 nM
Cc1ccc(-c2nc(N)c(CNC(=O)c3c(F)cccc3F)nc2-c2ccc(=O)n(C)c2)o1 [Example 4, N-((3-amino-6-(1-methyl-6-oxo-1,6-dihydropyridin-3-yl)-5-(5-methylfuran-2-yl)pyrazin-2-yl)methyl)-2,6-difluorobenzamide] | 18 nM | 15 nM | 1220 nM | 43 nM
Cc1cc(-c2nc(C(=O)NCc3c(F)cccc3F)c(N)nc2-c2ncco2)cc(C)n1 [Example 5, 3-amino-N-(2,6-difluorobenzyl)-6-(2,6-dimethylpyridin-4-yl)-5-(oxazol-2-yl)pyrazine-2-carboxamide] | 10000 nM | 28 nM | ≥ 10000 nM | 219 nM
CC1CN(c2nc(C(=O)NCc3c(F)cccc3F)c(N)nc2-c2ccc(F)cc2)CC(C)O1 (stereo not drawn) [Example 6, 3-amino-N-(2,6-difluorobenzyl)-6-(2,6-dimethylmorpholino)-5-(4-fluorophenyl)pyrazine-2-carboxamide] | 8840 nM | 87 nM | ≥ 10000 nM | 1060 nM
Cn1cc(-c2nc(CNC(=O)c3c(F)cccc3C(F)(F)F)c(N)nc2-c2ccc(F)cc2)ccc1=O [Example 7, N-[[3-amino-5-(4-fluorophenyl)-6-(1-methyl-6-oxo-1,6-dihydropyridin-3-yl)pyrazin-2-yl]methyl]-2-fluoro-6-(trifluoromethyl)benzamide] | 98 nM | 166 nM | 3860 nM | 237 nM
Cc1cc(-c2nc(CNC(=O)c3ccccn3)c(N)nc2-c2ccc(F)cc2)cc(C)n1 [Example 8, N-[[3-amino-6-(2,6-dimethylpyridin-4-yl)-5-(4-fluorophenyl)pyrazin-2-yl]methyl]pyridine-2-carboxamide] | 3400 nM | 116 nM | ≥ 10000 nM | 390 nM
CN(C)c1cccc(CNC(=O)c2nc(-c3ccc(=O)n(C)c3)c(-c3ncco3)nc2N)n1 [Example 15, 3-amino-N-[[6-(dimethylamino)pyridin-2-yl]methyl]-6-(1-methyl-6-oxo-1,6-dihydropyridin-3-yl)-5-(1,3-oxazol-2-yl)pyrazine-2-carboxamide] | 804 nM | 39 nM | ≥ 10000 nM | 86 nM
COc1cccc(CNC(=O)c2nc(-c3ccc(=O)n(C)c3)c(-c3ncco3)nc2N)n1 [Example 17] | 951 nM | 117 nM | ≥ 10000 nM | 132 nM
Cc1cccc(CNC(=O)c2nc(-c3ccc(=O)n(C)c3)c(-c3ncco3)nc2N)n1 [Example 18, 3-amino-6-(1-methyl-6-oxo-1,6-dihydropyridin-3-yl)-N-[(6-methylpyridin-2-yl)methyl]-5-(1,3-oxazol-2-yl)pyrazine-2-carboxamide] | 1150 nM | 105 nM | ≥ 10000 nM | 116 nM
Cn1cc(-c2nc(CNC(=O)c3ncccc3OC(F)F)c(N)nc2-c2ccc(F)cc2)ccc1=O [Example 21, N-[[3-amino-5-(4-fluorophenyl)-6-(1-methyl-6-oxo-1,6-dihydropyridin-3-yl)pyrazin-2-yl]methyl]-3-(difluoromethoxy)pyridine-2-carboxamide] | 18 nM | 98 nM | 638 nM | 73 nM
